Experimental data as given in paper PMC11435625, “In Vitro Hepatic Clearance Evaluations of Per- and Polyfluoroalkyl Substances (PFAS) across Multiple Structural Categories” (Toxics, 2024).

Columns and labels:
[1] = test system: pooled primary human hepatocyte suspensions; assay: Hepatic clearance assay (substrate depletion, LC-MS); conditions: in µL/min/10^6 cells; for CLint for HTTK: CLint value carried into HTTK/IVIVE; for in vitro CLint exp assay / Unadj Clint: pooled primary human hepatocyte suspensions; for Unadj Clint: unadjusted hepatic intrinsic clearance, Table S4
Summary of the method: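 Substrate depletion at 1 μM PFAS in pooled cryopreserved human hepatocytes (~0.5 × 10^6 viable cells/mL, 50-donor pool), 37 °C with shaking, sampled 0–240 min in triplicate. Quantified by LC-MS in negative ion mode against matrix-matched calibration; media-only or heat-inactivated cells as nonmetabolic-loss controls.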

[2] = test system: pooled primary human hepatocyte suspensions; assay: Bayesian (MCMC, invitroTKstats) analysis of hepatic clearance data; conditions: for Clint.1.Med: Level-4 Bayesian estimate, posterior median, Clint.1 series (Clint.10 all NA)
Source text: Markov Chain Monte Carlo was employed in a Bayesian analysis to estimate uncertainty of the hepatic clearance point measures as previously described, but with some modifications [10]. Briefly, after organizing PFAS-level data into a single file, the relationship between the relevant measurement process parameters was described in a graphic model in JAGS language [13] interfaced through R. For hepatic clearance data, the model describes the PFAS-specific mass spectrometric response factor between analyte peak ratio (to internal standard) and chemical concentration. […] The assumed prior for whether the chemical degraded abiotically in vitro followed a Bernoulli distribution with a 5% chance of abiotic degradation. Separate biotic and abiotic components for chemical elimination were estimated, each with a slope following an assumed uniform prior distribution bounded between the zero and the -log (limit of quantitation/Ctest). In scenarios where an external calibration without internal standard was used, the response factor was calculated using the analyte peak alone, introducing additional uncertainty due to the inability to normalize for recovery issues. The model was analyzed jointly by JAGS using five Markov chains. Convergence was identified by requiring the five chains to be consistent, as indicated by the potential scale reduction factor [14] being less than 1.1. The analysis was performed using EPA-developed R package invitroTKstats, available upon request.

plasma protein = conditions: fraction unbound in plasma, input for IVIVE calculations; cited from earlier work
[3] = IVIVE: steady-state concentration (Css), generic HTTK model; set-up: species or system human; conditions: for Css (mg/L) / Css (uM): Assuming 1 mg/kg/day dose rate, BW 70 kg; for CLhep: QL 1500000 uL/min; for Fub: fub=fup/(B:P), Fub set to 1 if needed; for CLint: scaled to whole liver: HPGL 110 mill cells/g, Vl 1596 g
Summary of the method: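 Human Css estimated by IVIVE: plasma protein binding converted to blood fraction unbound via blood-to-plasma partitioning, and experimental Clint scaled with liver scalars to whole liver clearance. AEDs then derived by reverse dosimetry from Css and PFAS in vitro POD, defined as fifth-percentile AC50.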

| SMILES | CLint for HTTK [1] | in vitro CLint exp assay [1] | Clint.1.Med [2] | Mean fu (plasma protein) | Css (mg/L) [3] [mg/L] | Css (uM) [3] [µM] | CLhep [3] [L/h] | Fub [3] | CLint [3] [µL/min] | Unadj Clint [1] | metabolic clearance call, experimental and Bayesian analyses in agreement ([2]; both analyses agreed) |
| --- | --- | --- | --- | --- | --- | --- | --- | --- | --- | --- | --- |
| O=C(O)C(F)(F)C(F)(F)C(F)(F)C(F)(F)C(F)(F)C(F)(F)C(F)(F)C(F)(F)C(F)(F)C(F)F | 0 | 0 | 0 | 0.0015 | 160.90 | 294.69 | 0.000 | 0.002727 | 0 |  |  |
| O=C(O)CCC(F)(F)C(F)(F)C(F)(F)C(F)(F)C(F)(F)F | 11.84 | 11.84 | 19 | 0.0059 | 2.11 | 6.18 | 1.318 | 0.01073 | 2078630 |  |  |
| O=S(=O)(O)CCC(F)(F)C(F)(F)C(F)(F)C(F)(F)F | 4.28 | 4.28 | 0 | 0.005 | 6.27 | 19.12 | 0.408 | 0.009091 | 751397 |  |  |
| O=S(=O)(O)CCC(F)(F)C(F)(F)C(F)(F)C(F)(F)C(F)(F)C(F)(F)F | 1.4 | 1.4 | 0 | 0.0143 | 5.29 | 12.36 | 0.382 | 0.026 | 245784 |  |  |
| O=S(=O)(O)CCC(F)(F)C(F)(F)C(F)(F)C(F)(F)C(F)(F)C(F)(F)C(F)(F)C(F)(F)F | 1.53 | 1.53 | 0 | 0.0396 | 1.81 | 3.42 | 1.146 | 0.072 | 268607 |  |  |
| O=C(O)C(F)(F)OC(F)(F)C(F)(F)OC(F)(F)F | 0 | 0 | 0 | 0.0031 | 77.85 | 263.04 | 0.000 | 0.005636 | 0 |  |  |
| O=S(=O)([O-])C(F)(F)C(F)(F)C(F)(F)C(F)(F)F.[K+] | 0 | 0 | 0 | 0.0046 | 52.47 | 174.92 | 0.000 | 0.008364 | 0 |  |  |
| O=P(O)(O)CCC(F)(F)C(F)(F)C(F)(F)C(F)(F)C(F)(F)C(F)(F)F [2-(Perfluorohexyl)ethylphosphonic acid] | 0 | 0 | 0 | 0.0123 | 19.62 | 45.85 | 0.000 | 0.02236 | 0 | 0.71 |  |
| O=C(O)C=C(C(F)(F)F)C(F)(F)F [3,3-Bis(trifluoromethyl)-2-propenoic acid] |  |  | 0 |  |  |  |  |  |  | 1.82 |  |
| O=C(O)CCC(F)(F)C(F)(F)C(F)(F)F [3:3 Fluorotelomer carboxylic acid] |  |  | 0 |  |  |  |  |  |  | 0.00 |  |
| O=C(O)C(F)(F)C(F)(F)C(F)(F)C(F)(F)C(F)(F)C(F)(F)C(F)(F)C(F)F [9-H-Perfluorononanoic acid (9H-PFNA)] | 0 | 0 | 0 | 0.0009 | 268.16 | 601.28 | 0.000 | 0.001636 | 0 |  |  |
| CNS(=O)(=O)C(F)(F)C(F)(F)C(F)(F)C(F)(F)C(F)(F)C(F)(F)C(F)(F)C(F)(F)F [N-Methylperfluorooctanesulfonamide] |  |  |  |  |  |  |  |  |  | 33.23 | metabolized |
| O=C(Cl)C(F)(F)C(F)(F)C(F)(F)C(F)(F)C(F)(F)C(F)(F)C(F)(F)F [Pentadecafluorooctanoyl chloride] |  |  | 0 |  |  |  |  |  |  | 0.00 |  |
| O=S(=O)(O)C(F)(F)C(F)(F)OC(F)(F)C(F)(F)F [Perfluoro(2-ethoxyethane)sulfonic acid] | 5.51 | 5.51 | 266 | 0.0015 | 16.68 | 52.79 | 0.158 | 0.002727 | 967336 | 5.51 |  |
| O=C(O)C(F)(F)OC(F)(F)C(F)(F)OC(F)(F)C(F)(F)OC(F)(F)F [Perfluoro-3,6,9-trioxadecanoic acid] | 0 | 0 | 0 | 0.0003 | 804.48 | 1952.80 | 0.000 | 0.0005455 | 0 | 0.00 |  |
| O=C(O)C(F)(F)OC(F)(F)C(F)(F)OC(F)(F)C(F)(F)C(F)(F)C(F)(F)F [Perfluoro-3,6-dioxadecanoic acid] | 0 | 0 | 0 | 0.0007 | 344.78 | 773.10 | 0.000 | 0.001273 | 0 | 0.00 |  |
| O=C(O)C(F)(F)C(F)(F)OC(F)(F)F [Perfluoro-3-methoxypropanoic acid] |  |  | 0 |  |  |  |  |  |  | 0.00 |  |
| O=S(=O)(O)C(F)(F)C(F)(F)C(F)(F)C(F)(F)F [Perfluorobutanesulfonic acid (PFBS)] | 4.75 | 4.75 | 0 | 0.0128 | 2.25 | 7.51 | 1.150 | 0.02327 | 833910 |  |  |
| O=C(O)C(F)(F)C(F)(F)C(F)(F)F [Perfluorobutanoic acid (PFBA)] | 0 | 0 | 0 | 0.093 | 2.60 | 12.13 | 0.000 | 0.1691 | 0 |  |  |
| O=C(Cl)C(F)(F)C(F)(F)C(F)(F)C(F)(F)C(F)(F)C(F)(F)F [Perfluoroheptanoyl chloride] |  |  | 0 |  |  |  |  |  |  | 0.00 |  |
| NS(=O)(=O)C(F)(F)C(F)(F)C(F)(F)C(F)(F)C(F)(F)C(F)(F)F [Perfluorohexanesulfonamide] |  |  | 0 |  |  |  |  |  |  | 0.00 |  |
| O=S(=O)(O)C(F)(F)C(F)(F)C(F)(F)C(F)(F)C(F)(F)C(F)(F)C(F)(F)C(F)(F)F [Perfluorooctanesulfonate] |  |  | 0 |  |  |  |  |  |  | 0.00 |  |
| O=S(=O)([O-])C(F)(F)C(F)(F)C(F)(F)C(F)(F)C(F)(F)C(F)(F)F.[K+] [Potassium perfluorohexanesulfonate] |  |  | 0 |  |  |  |  |  |  | 0.00 |  |
